Among the data in patent US20260285863A1, “COMPOUNDS CAPABLE OF MODULATING GPR65” (Pathios Therapeutics Limited, priority 2023, published 2026) are IC50 values, retold here.

Each structure is given as a SMILES string.

The target of the assay is T1, human recombinant GPR65 (Homo sapiens, UniProt Q8IYL9).
T1 construct: host or cells: 1321N1 human astrocytoma cells (1321N1-hrGPR65)
T1 sequence (Q8IYL9 whole entry): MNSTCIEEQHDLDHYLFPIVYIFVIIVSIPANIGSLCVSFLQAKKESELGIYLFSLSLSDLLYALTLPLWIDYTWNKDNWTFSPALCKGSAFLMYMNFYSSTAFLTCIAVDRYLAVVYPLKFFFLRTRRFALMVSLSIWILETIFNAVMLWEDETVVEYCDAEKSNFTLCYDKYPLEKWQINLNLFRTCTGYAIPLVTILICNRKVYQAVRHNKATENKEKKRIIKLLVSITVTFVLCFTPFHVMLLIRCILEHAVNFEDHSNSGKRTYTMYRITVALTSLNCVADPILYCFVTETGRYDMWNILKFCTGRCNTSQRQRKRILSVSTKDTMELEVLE
As to the kind of experiment: Human GPR65 cAMP HTRF antagonist assay. It is filed as cell-based. The settings on record: 1321N1-hrGPR65 cells, assay pH 7.2, cAMP HTRF; read-out: hGPR65 IC50. The procedure, abridged: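 1321N1 cells stably expressing human GPR65 were preincubated 30 min at room temperature with compound in KRH pH 7.6 containing 1 mM IBMX and 200 μM EDTA. They were then acid-stimulated to pH 7.2 for 30 min, with pH 7.9 as control. cAMP was read by HTRF (665/620 ratio), and IC50 came from normalised 4-parameter logistic fits.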
(Time-resolved FRET reads energy transfer from a long-lived donor to a nearby acceptor.)
`O=C(Nc1cc(Cl)c(-c2ccc(OC[C@H]3CC3(F)F)nc2)cc1F)N1[C@H]2CC[C@@H]1c1n[nH]c(=O)cc1C2` [Compound 81, (6S,9R)-N-(5-Chloro-4-(6-(((R)-2,2-difluorocyclopropyl)methoxy)pyridin-3-yl)-2-fluorophenyl)-3-oxo-3,5,6,7,8,9-hexahydro-2H-6,9-epiminocyclohepta[c]pyridazine-10-carboxamide]: the IC50 (in general, the midpoint of a concentration-inhibition curve) is less than 500 nM.

On to `O=C(Nc1cc(Cl)c(-c2ccc(OC[C@H]3CC3(F)F)nc2)cc1F)N1[C@H]2CC[C@@H]1c1c[nH]c(=O)cc1C2` [Compound 82, (6S,9R)-N-(5-Chloro-4-(6-(((R)-2,2-difluorocyclopropyl)methoxy)pyridin-3-yl)-2-fluorophenyl)-3-oxo-3,5,6,7,8,9-hexahydro-2H-6,9-epiminocyclohepta[c]pyridine-10-carboxamide], for which the IC50 was less than 500 nM.

With `O=C(Nc1cc(Cl)c(-c2ccc(OC[C@@H]3CC3(F)F)nc2)cc1F)N1[C@H]2CC[C@@H]1c1n[nH]c(=O)cc1C2` [Compound 83, (6S,9R)-N-(5-Chloro-4-(6-(((S)-2,2-difluorocyclopropyl)methoxy)pyridin-3-yl)-2-fluorophenyl)-3-oxo-3,5,6,7,8,9-hexahydro-2H-6,9-epiminocyclohepta[c]pyridazine-10-carboxamide], the IC50 was less than 500 nM.

On to `O=C(Nc1cc(Cl)c(-c2ccc(OC3CCOCC3)nc2)cc1F)N1[C@H]2CC[C@@H]1c1n[nH]c(=O)cc1C2` [Compound 84, (6S,9R)-N-(5-Chloro-2-fluoro-4-(6-((tetrahydro-2H-pyran-4-yl)oxy)pyridin-3-yl)phenyl)-3-oxo-3,5,6,7,8,9-hexahydro-2H-6,9-epiminocyclohepta[c]pyridazine-10-carboxamide], for which the IC50 is less than 500 nM.

Take `O=C(Nc1cc(Cl)c(-c2ccc(OC[C@@H]3CC3(F)F)nc2)cc1F)N1[C@H]2CC[C@@H]1c1c[nH]c(=O)cc1C2` [Compound 85, (6S,9R)-N-(5-Chloro-4-(6-(((S)-2,2-difluorocyclopropyl)methoxy)pyridin-3-yl)-2-fluorophenyl)-3-oxo-3,5,6,7,8,9-hexahydro-2H-6,9-epiminocyclohepta[c]pyridine-10-carboxamide]: the IC50 was less than 500 nM.

Regarding `O=C(Nc1cc(Cl)c(-c2ccc(OCC3(F)CC3)nc2)cc1F)N1[C@H]2CC[C@@H]1c1n[nH]c(=O)cc1C2` [Compound 86, (6S,9R)-N-(5-Chloro-2-fluoro-4-(6-((1-fluorocyclopropyl)methoxy)pyridin-3-yl)phenyl)-3-oxo-3,5,6,7,8,9-hexahydro-2H-6,9-epiminocyclohepta[c]pyridazine-10-carboxamide], the IC50 is less than 500 nM.

Regarding `O=C(Nc1cc(Cl)c(-c2ccc(OC3CCS(=O)(=O)CC3)nc2)cc1F)N1[C@H]2CC[C@@H]1c1n[nH]c(=O)cc1C2` [Compound 87, (6S,9R)-N-(5-Chloro-4-(6-((1,1-dioxidotetrahydro-2H-thiopyran-4-yl)oxy)pyridine-3-yl)-2-fluorophenyl)-3-oxo-3,5,6,7,8,9-hexahydro-2H-6,9-epiminocyclohepta[c]pyridazine-10-carboxamide], the IC50 was less than 500 nM.

As to `O=C(Nc1cc(Cl)c(Cl)cc1OCC1CC1(F)F)N1[C@H]2CC[C@@H]1c1n[nH]c(=O)cc1C2` (stereo partly drawn) [Compound 88, (6S,9R)-N-(4,5-Dichloro-2-((2,2-difluorocyclopropyl)methoxy)phenyl)-3-oxo-3,5,6,7,8,9-hexahydro-2H-6,9-epiminocyclohepta[c]pyridazine-10-carboxamide], the IC50 is more than 5000 nM.

Take `O=C(Nc1cc(Cl)c(Cl)cc1OCC1(F)CC1)N1[C@H]2CC[C@@H]1c1n[nH]c(=O)cc1C2` [Compound 89, (6S,9R)-N-(4,5-Dichloro-2-((1-fluorocyclopropyl)methoxy)phenyl)-3-oxo-3,5,6,7,8,9-hexahydro-2H-6,9-epiminocyclohepta[c]pyridazine-10-carboxamide]: the IC50 is more than 5000 nM.

As to `O=C1c2ccc(NC(=O)N3[C@H]4CC[C@@H]3c3n[nH]c(=O)cc3C4)cc2C(=O)N1c1ccc(OCC(F)(F)F)nc1` [Compound 91, (6S,9R)-N-(1,3-Dioxo-2-(6-(2,2,2-trifluoroethoxy)pyridin-3-yl)isoindolin-5-yl)-3-oxo-3,5,6,7,8,9-hexahydro-2H-6,9-epiminocyclohepta[c]pyridazine-10-carboxamide], the IC50 was 500 to 5000 nM.

Take `O=C(Nc1cc(Cl)c(-c2ccc(Nc3cc(Cl)c(-c4ccc(OCC(F)(F)F)nc4)cc3F)nc2)cc1F)N1[C@H]2CC[C@@H]1c1n[nH]c(=O)cc1C2` [Compound 92, (6S,9R)-N-(5-Chloro-4-(6-((5-chloro-2-fluoro-4-(6-(2,2,2-trifluoroethoxy)pyridin-3-yl)phenyl)amino)pyridin-3-yl)-2-fluorophenyl)-3-oxo-3,5,6,7,8,9-hexahydro-2H-6,9-epiminocyclohepta[c]pyridazine-10-carboxamide]: the IC50 is less than 500 nM.
